Source: the NIST ThermoML archive (doi:10.1021/je400781b)
± gives the expanded uncertainty stated by the source.

Experiment: xn = mol fraction of the nth substance listed
Conditions: 101 kPa, Liquid; for speed of sound: Frequency=2.75 MHz, Pulse-echo method; for mass density: Vibrating tube method

CCCC[n+]1ccn(C)c1.O=S(=O)([N-]S(=O)(=O)C(F)(F)F)C(F)(F)F + CC#N
Conditions	mass density, 293.15 K [kg/m3]	mass density, 298.15 K [kg/m3]	mass density, 303.15 K [kg/m3]	mass density, 308.15 K [kg/m3]	mass density, 313.15 K [kg/m3]	speed of sound, 293.15 K [m/s]	speed of sound, 298.15 K [m/s]	speed of sound, 303.15 K [m/s]	speed of sound, 308.15 K [m/s]	speed of sound, 313.15 K [m/s]
x1 = 0.0506	936.84 ± 0.95	931.39 ± 0.94	925.93 ± 0.94	920.45 ± 0.94	914.95 ± 0.96	1259.9 ± 1.2	1241.7 ± 1.2	1223.7 ± 1.2	1205.7 ± 1.2	1187.9 ± 1.2
x1 = 0.1242	1078.45 ± 0.63	1073.07 ± 0.63	1067.67 ± 0.63	1062.27 ± 0.63	1056.87 ± 0.64	1241 ± 1.2	1224.8 ± 1.2	1208.7 ± 1.2	1192.7 ± 1.2	1176.8 ± 1.2
x1 = 0.2041	1175.48 ± 0.39	1170.19 ± 0.38	1164.9 ± 0.38	1159.61 ± 0.38	1154.32 ± 0.4	1235 ± 1.2	1220.1 ± 1.2	1205.3 ± 1.2	1190.6 ± 1.2	1176 ± 1.2
x1 = 0.341	1275.66 ± 0.31	1270.52 ± 0.31	1265.38 ± 0.31	1260.25 ± 0.31	1255.12 ± 0.32	1234 ± 1.3	1220.4 ± 1.2	1206.9 ± 1.2	1193.5 ± 1.2	1180.3 ± 1.2
x1 = 0.5016	1343.88 ± 0.33	1338.86 ± 0.32	1333.85 ± 0.32	1328.85 ± 0.32	1323.86 ± 0.32	1235.1 ± 1.3	1222.4 ± 1.3	1209.9 ± 1.3	1197.5 ± 1.3	1185.2 ± 1.3
x1 = 0.6525	1384.46 ± 0.39	1379.53 ± 0.39	1374.6 ± 0.38	1369.69 ± 0.38	1364.79 ± 0.38	1236.2 ± 1.4	1224.1 ± 1.4	1212.1 ± 1.4	1200.3 ± 1.4	1188.6 ± 1.4
x1 = 0.7861	1410.16 ± 0.47	1405.28 ± 0.46	1400.42 ± 0.46	1395.58 ± 0.45	1390.74 ± 0.45	1237.1 ± 1.4	1225.4 ± 1.4	1213.8 ± 1.4	1202.4 ± 1.4	1191 ± 1.4
x1 = 0.9575	1434.22 ± 0.58	1429.41 ± 0.58	1424.61 ± 0.57	1419.83 ± 0.57	1415.06 ± 0.56	1237.9 ± 1.5	1226.6 ± 1.5	1215.4 ± 1.5	1204.3 ± 1.5	1193.4 ± 1.5
x1 = 1	1439.23 ± 0.61	1434.44 ± 0.61	1429.65 ± 0.6	1424.88 ± 0.6	1420.12 ± 0.59	1237.9 ± 1.5	1226.7 ± 1.5	1215.6 ± 1.5	1204.6 ± 1.5	1193.7 ± 1.5
